Test results: US20180028487A1, “DERMATOLOGICAL FORMULATIONS OF 2-(2-ETHOXY-2-OXOETHYL)(METHYL)AMINO-2-OXOETHYL 5-(TETRADECYLOXY)FURAN-2-CARBOXYLATE” (Dermira Inc., priority 2016, published 2018)

Tests used:
[1] = test system: acne vulgaris on the face; assay: Dose range study, efficacy (Example 5); assay type: in vivo, human; conditions: for LS mean change in noninflammatory lesion counts: Week 12; for LS mean change in inflammatory lesion counts / percentage of subjects achieving minimum 2-grade improvement in IGA score: baseline to Week 12
Experimental: Dose ranges were determined in adult subjects with acne vulgaris on the face. The study was a randomized, vehicle controlled, parallel group study designed to assess the efficacy and safety of the active formulations comprising a compound of Formula (Ia) at a concentration of 7.5% BID, 7.5% QD, and 4.0% QD, respectively. The results were compared to those of vehicle formulation (BID or QD) on subjects with moderate to severe facial acne. A total of 420 adult subjects were randomized to active formulations (7.5% BID, 7.5% QD, and 4.0% QD) and vehicle (BID and QD) in a 2:2:2:1:1 fashion. Study treatments continued for 12 weeks. Subjects returned to the study clinic at Weeks 1, 2 (phone call only), 4, 8 and 12 (study exit). Primary efficacy endpoints for this study were 1) the mean absolute change from baseline to Week 12 in inflammatory and noninflammatory lesion counts and 2) the proportion of subjects who achieved a 2-grade improvement in the IGA from baseline to Week 12. Absolute change from baseline to Week 12 in inflammatory and non-inflammatory lesion counts was analyzed using an analysis of covariance (ANCOVA) model with a factor of treatment and the respective baseline lesion count as a covariate. The proportion of subjects who are dichotomized to success (minimum 2-grade improvement from baseline in IGA score) at Week 12 was analyzed using a Cochran-Mantel-Haenszel (CMH) test. Exploratory analyses were conducted for linearity of a dose response for the proportion of subjects dichotomized to an IGA success.

[2] = Dose range study, pharmacokinetics: plasma concentrations (Example 5); assay type: in vivo, human; conditions: for systemic absorption: topical application at 7.5% strength, twice daily for 12 weeks
Experimental: A subset of study centers enrolled subjects for an assessment of PK. Blood was to be collected from approximately 10 subjects per treatment group. At the Day 1 and Week 8 visits, a predose blood sample was collected prior to the first application of study drug for the day; samples were then collected at 1, 2, 3, and 4 hours after application of study drug.

[3] = Stability studies on non-GMP and GMP material; assay type: physicochemical
Experimental: Stability studies conducted on non-GMP and GMP material have shown chemical stability the compound of Formula (Ia) for 24 months at 5° C. and 25° C./60% Relative Humidity (RH); and for 6 months at 40° C./75% RH.

[4] = Solubility in solvents / vehicle; assay type: physicochemical
From the text: In various embodiments, the dermatologically acceptable vehicle comprises dimethyl isosorbide and one or more alcohols. […] DMI is freely miscible with alcohols such as ethanol, isopropanol (IPA), polyols such as polyethylene glycol (PEG 200 or PEG 400), or a mixture thereof. By adjusting the relevant amounts of DMI and the alcohol(s), the solubility and saturation of the active ingredient in the dermatological formulation can be adjusted to maximize the thermodynamic activity of the active ingredient in the gel. In a specific embodiment, the dermatologically acceptable vehicle comprises, by weight ratios, 50 parts ethanol, 20 parts IPA, 15.5 parts PEG400, and 12.5 parts DMI. The vehicle is typically a clear gel, and bears the same appearance with or without the active ingredient.
In certain embodiment, the crystalline product form is a white crystalline solid with a low-melting point (64-66° C.), having solubility of about 90 mg/g (±5 mg/g) in a solvent system comprising Ethanol/IPA/PEG 400/DMI at 50/20/15.5/12.5 (w/w).

[5] = Dose range study, safety and tolerability (Example 5); assay type: in vivo, human; conditions: 4.0% QD, 7.5% QD and 7.5% BID, 12-week treatment period
Experimental: Safety was assessed through adverse events (AEs), local skin responses (LSRs, determined by the presence and severity of erythema, dryness, peeling, burning/stinging, and pruritus), laboratory tests (serum chemistry, and hematology), vital signs, and physical examinations.

[6] = cited from earlier work

For `CCCCCCCCCCCCCCOc1ccc(C(=O)OCC(=O)N(C)CC(=O)OCC)o1` [Formula (Ia), 2-((2-ethoxy-2-oxoethyl)(methyl)amino)-2-oxoethyl 5 (tetradecyloxy) furan-2-carboxylate], which “LS mean change in noninflammatory lesion counts” value ([1]; 4.0% QD) is on record?
Its value is −15.3.

And the “LS mean change in inflammatory lesion counts” value ([1]; 4.0% QD)?
The value was −14.6.

And the “percentage of subjects achieving minimum 2-grade improvement in IGA score” value ([1]; 4.0% QD)?
Its value is 21.6%.

And the “LS mean change in noninflammatory lesion counts” value ([1]; 7.5% BID)?
Its value is −17.5.

What about the “LS mean change in inflammatory lesion counts” value ([1]; 7.5% BID) of the same molecule?
The value was −15.0.

What about the “percentage of subjects achieving minimum 2-grade improvement in IGA score” value ([1]; 7.5% BID) of the same molecule?
The value was 25.9%.

What about the “LS mean change in noninflammatory lesion counts” value ([1]; 7.5% QD) of the same molecule?
Its value is −13.4.

And the “LS mean change in inflammatory lesion counts” value ([1]; 7.5% QD)?
Its value is −14.5.

What about the “plasma concentration of Compound of Formula (Ia)” value ([2]; Day 1, topical, all but one subject) of the same molecule?
Its value is “undetectable”.

What about the “plasma concentration of Compound of Formula (Ia)” value ([2]; Week 8, all tested subjects) of the same molecule?
The value was “undetectable”.

What about the concentration at 2 h ([2]; human, plasma, topical, Day 1, one subject, one time point (2 hours post-dosing), read-out: plasma concentration of Compound of Formula (Ia)) of the same molecule?
The concentration at 2 h was 0.304 ng/mL.

And the systemic absorption [2]?
Its systemic absorption is “little or no”.

What about the chemical stability ([3]; 5° C.) of the same molecule?
Its chemical stability is 24 months.

What about the “stability of the crystal form” value ([3]; 5° C.) of the same molecule?
Its value is “up to 36 months”.

What about the “stability of the crystal form” value ([3]; 25° C./60% RH) of the same molecule?
The value was “up to 36 months”.

And the chemical stability ([3]; 25° C./60% Relative Humidity (RH))?
Its chemical stability is 24 months.

What about the “stability of the crystal form” value ([3]; 30° C./65% RH) of the same molecule?
Its value is “up to 27 months”.

What about the chemical stability ([3]; 40° C./75% RH) of the same molecule?
Its chemical stability is 6 months.

What about the solubility ([4]; crystalline product form, solvent system Ethanol/IPA/PEG 400/DMI at 50/20/15.5/12.5 (w/w)) of the same molecule?
The solubility was “about 90 mg/g”.

And the solubility ([4]; in dimethyl isosorbide (DMI))?
Its solubility is “about 125 mg/g”.

What about the tolerability [5] of the same molecule?
The tolerability was “well tolerated”.

Which results are given for `CCCCCCCCCCCCCCOc1ccc(C(=O)O)o1` [TOFA, 5-(tetradecyloxy)-2-furoic acid, reference compound]?
systemic absorption [2]: little or no; bioavailability through the skin [6]: poor
